The results in this text go back to patent publication US5962476A, “Azolylamine derivative” (Kaken Pharmaceutical Co., Ltd., priority 1993, dated 1999).

Each structure is given as a SMILES string. Converted amounts (≈) assume the structure as drawn. Read-outs that look alike come from different tables or passages of the source.

Data set [1] concerns Aspergillus fumigatus NI-5561. The data set can be described thus: Minimum inhibitory concentration (MIC), agar dilution method on Sabouraud's agar medium, 30° C. for 48 hours. The format is cell-based. Particulars: read-out: Minimum inhibitory concentration (MIC), A.f. The procedure: (§1) MIC of a test compound against Candida albicans ATCC-10259 was determined by the both dilution method employing synthetic amino acid medium (SAAMF medium). Namely, to 3 μl of twofold dilution series of solution containing the test compound was added 300 μl of SAAMF medium inoculated with the fungus at the final concentration of 1×10^3 cells/ml. […] MIC of a test compound against the fungus other than the Candida albicans was determined by the agar dilution method employing Sabouraud's agar medium. That is to say, a test compound was dissolved in dimethyl sulfoxide to give a solution containing the test compound in the concentration of 10 mg/ml. Further, thus obtained solution was diluted with dimethyl sulfoxide according to twofold dilution series and 0.1 ml of the diluted solution was taken into a sterile shale. After 9.9 ml of Sabouraud's agar medium was added thereto, the mixture was sufficiently mixed to give a drug-added plate. The plate was inoculated with 5 μl of a fungus suspension at 10^6 cells/ml by Microplanter (Sakuma Seisakusho Co., Ltd.). As to Aspergillus fumigatus NI-5561 and Cryptococcus neoformans NI-7496, a plate was incubated at 30° C. for 48 hours. As to Trichophyton mentagrophytes KD-01, a plate was incubated at 30° C. for 7 days. […] Clotrimazole and fluconazole were used as comparative control compounds.
Aspergillus fumigatus NI-5561

For data set [2], the system named is Candida albicans ATCC-10259. The data set can be described thus: Minimum inhibitory concentration (MIC), dilution method in SAAMF medium, 35° C. for 2 days. The format is cell-based. To be noted: ATCC10259, 48 h, read-out: Minimum inhibitory concentration (MIC), C.a. As for the experimental part: as §1
Candida albicans ATCC 10259

The test system of data set [3] is Cryptococcus neoformans NI-7496. The data set can be described thus: Minimum inhibitory concentration (MIC), agar dilution method on Sabouraud's agar medium, 30° C. for 48 hours. The format is cell-based. Particulars: read-out: Minimum inhibitory concentration (MIC), Cr.n. The procedure:
as §1
Cryptococcus neoformans NI-7496
(In agar dilution, organisms are placed on agar that contains the substance at set levels.)

Data set [4] deals with Trichophyton mentagrophytes KD-01. The data set can be described thus: Minimum inhibitory concentration (MIC), agar dilution method on Sabouraud's agar medium, 30° C. for 7 days. It counts as cell-based. Particulars: KD01, 168 h, read-out: Minimum inhibitory concentration (MIC), T.m. As for the experimental part: as §1, with “compounds. |Trichophyton mentagrophytes KD-01 | T. m.” for “compounds.”

Data set [5] has as its system Trichophyton mentagrophytes KD-04. The data set can be described thus: Effect on trichophytosis in guinea pigs. The format is in vivo, male Hartley guinea pig. To be noted: guinea pig, topical 1% solution, 0.2 ml once a day for 10 days from 3 days after infection. As for the experimental part: In the back of male Hartley guinea pig, weighing 400 to 500 g, a portion of skin was unhaired and rubbed lightly with sandpaper, to which 0.1 ml of microconidium suspension of Trichophyton mentagrophytes KD-04 (10^7 cells/ml) was dropped and the skin surface was infected by rubbing it with a glass rod. […] The animal was killed by etherization 2 days after the last treatment and 10 tissue specimens of skin were cut out from the infected portion and incubated on Sabouraud's agar medium for 7 days. Inhibitory ratio was calculated according to the following formula: […] of tissue specimens)}×100 The results are shown in Table 2. Clotrimazole was used as a control compound.

Data set [6] deals with Candida albicans KC-36. The data set can be described thus: Therapeutic effect on cutaneous candidiasis in guinea pigs. It counts as in vivo, male Hartley guinea pig. Particulars: guinea pig, topical 1% solution, 0.2 ml once a day for 3 days from 2 days after infection. As for the experimental part: Inhibitory ratio (%={1-(number of tissue specimens found fungi/total number
of tissue specimens)}×100
In the back of male Hartley guinea pig, weighing 400 to 500 g, a portion of skin was unhaired, to which […] of spore suspension of Candida albicans KC-36 (5×10^7 cells/ml) was dropped and the skin surface was infected by rubbing it with a glass rod. To facilitate the infection, prednisolone was subcutaneously administered at 30 mg/kg on one day before the infection, the day of infection and 4 days after the infection. […] The animal was killed by etherization 2 days after the last treatment and 10 tissue specimens of skin were cut out from the infected portion and incubated on CANDIDA GS AGAR `EIKEN` (EIKEN CHEMICAL CO., LTD. ) for 7 days. The inhibitory ratio was calculated according to the above-mentioned formula. Clotrimazole was employed as a control compound.

Data set [7] in a line: Acute toxicity test for mice. It counts as in vivo, male ICR mouse. The procedure:
The compound of Example 1 was dissolved in polyethylene glycol 200 and the resultant solution was applied to a male ICR mouse of 5 weeks old by oral or subcutaneous administration.

Where [8] appears, read: NI5561, Aspergillus fumigatus NI-5561, Sabouraud's agar, 30° C., 48 hours.
The mark [9] stands for this setting: Candida albicans ATCC 10259, SAAMF medium, 35° C., 2 days.
Where [10] appears, read: NI7496, Cryptococcus neoformans NI-7496, Sabouraud's agar, 30° C., 48 hours.
Setting [11] is: Aspergillus fumigatus, NI5561, 48 h.
The mark [12] stands for this setting: Cryptococcus neoformans, NI7496, 48 h.

For `C=C1CCN([C@H](C)[C@](O)(Cn2cncn2)c2ccc(F)cc2F)CC1` (racemic) [Example 2, (2RS,3RS)-2-(2,4-difluorophenyl)-3-(4-methylenepiperidino)-1-(1H-1,2,4-triazol-1-yl)butan-2-ol], the MIC was 0.1 µg/mL (≈ 0.287 µM) in data set [1] (setting [8]), less than 0.025 µg/mL in data set [2] (setting [9]), 0.1 µg/mL (≈ 0.287 µM) in data set [3] (setting [10]) and 0.39 µg/mL (≈ 1.12 µM) in data set [4].
`C=C1CCN([C@H](C)[C@](O)(Cn2ccnc2)c2ccc(F)cc2F)CC1` (racemic) [Example 5, (2RS,3RS)-2-(2,4-difluorophenyl)-3-(4-methylenepiperidino)-1-(1H-imidazol-1-yl)butan-2-ol]: the MIC in data set [1] (setting [8]) is 0.05 µg/mL (≈ 0.144 µM); in data set [2] (setting [9]) it was less than 0.025 µg/mL; in data set [3] (setting [10]), 0.025 µg/mL (≈ 0.072 µM); in data set [4], 0.1 µg/mL (≈ 0.288 µM).
Taken in the same sequence, the figures for `CC=C1CCN([C@H](C)[C@](O)(Cn2cncn2)c2ccc(F)cc2F)CC1` (racemic) [Example 8, (2RS,3RS)-2-(2,4-difluorophenyl)-3-(4-ethylidenepiperidino)-1-(1H-1,2,4-triazol-1-yl)butan-2-ol] were 0.2 µg/mL (≈ 0.552 µM), less than 0.025 µg/mL, 0.1 µg/mL (≈ 0.276 µM) and 0.78 µg/mL (≈ 2.15 µM).
For the molecule `C[C@@H](N1CCC(=Cc2ccccc2)CC1)[C@](O)(Cn1cncn1)c1ccc(F)cc1F` (racemic) [Example 10, (2RS,3RS)-2-(2,4-difluorophenyl)-3-(4-benzylidenepiperidino)-1-(1H-1,2,4-triazol-1-yl)butan-2-ol], the MIC in data set [1] (setting [8]) is 0.1 µg/mL (≈ 0.236 µM); in data set [2] (setting [9]), less than 0.025 µg/mL; in data set [3] (setting [10]), 0.025 µg/mL (≈ 0.0589 µM); in data set [4], 0.39 µg/mL (≈ 0.919 µM).
In the case of `Clc1ccccc1C(c1ccccc1)(c1ccccc1)n1ccnc1` [Clotrimazole, reference compound], the MIC came to 0.78 µg/mL (≈ 2.26 µM) in data set [1] (setting [11]), 0.025 µg/mL (≈ 0.0725 µM) in data set [2] (Candida albicans), 0.2 µg/mL (≈ 0.58 µM) in data set [3] (setting [12]) and 0.39 µg/mL (≈ 1.13 µM) in data set [4]. Moreover, the Inhibitory ratio in data set [5] was 20%; in data set [6], 96%.
On to `C=C1CCN([C@H](C)[C@](O)(Cn2cncn2)c2ccc(F)cc2F)CC1` [Example 1, (2R,3R)-2-(2,4-difluorophenyl)-3-(4-methylenepiperidino)-1-(1H-1,2,4-triazol-1-yl)butan-2-ol], for which the “Number of died mice/number of tested mice” value in data set [7] (oral, 500 mg/kg) was 0/3; in data set [7] (oral, 1000 mg/kg) it was 0/3; in data set [7] (subcutaneous, 125 mg/kg), 0/3; in data set [7] (subcutaneous, 250 mg/kg), 0/3; in data set [7] (subcutaneous, 500 mg/kg), 0/3; in data set [7] (subcutaneous, 1000 mg/kg) it was 0/3. Further, the MIC is 0.05 µg/mL (≈ 0.144 µM) in data set [1] (setting [8]), less than 0.025 µg/mL in data set [2] (setting [9]), 0.05 µg/mL (≈ 0.144 µM) in data set [3] (setting [10]) and 0.39 µg/mL (≈ 1.12 µM) in data set [4]. The Inhibitory ratio in data set [5] and in data set [6] was 98% each time.
In the case of `C=C1CCN([C@@H](C)[C@@](O)(Cn2cncn2)c2ccc(F)cc2F)CC1` [Example 3, (2S,3S)-2-(2,4-difluorophenyl)-3-(4-methylenepiperidino)-1-(1H-1,2,4-triazol-1-yl)butan-2-ol], the MIC in data set [1] (setting [8]) was more than 100 µg/mL; in data set [2] (setting [9]), 0.39 µg/mL (≈ 1.12 µM); in data set [3] (setting [10]), 0.78 µg/mL (≈ 2.24 µM); in data set [4], 50 µg/mL (≈ 144 µM).
Taken in the same sequence, the figures for `C=C1CCN([C@H](C)[C@](O)(Cn2ccnc2)c2ccc(F)cc2F)CC1` [Example 4, (2R,3R)-2-(2,4-difluorophenyl)-3-(4-methylenepiperidino)-1-(1H-imidazol-1-yl)butan-2-ol] were 0.05 µg/mL (≈ 0.144 µM), less than 0.025 µg/mL, less than 0.025 µg/mL and less than 0.025 µg/mL.
Taken in the same sequence, the figures for `C=C1CCN([C@H](C)[C@](O)(Cn2cncn2)c2ccc(Cl)cc2)CC1` [Example 6, (2R,3R)-2-(4-chlorophenyl)-3-(4-methylenepiperidino)-1-(1H-1,2,4-triazol-1-yl)butan-2-ol] were 6.25 µg/mL (≈ 18 µM), less than 0.0125 µg/mL, 0.2 µg/mL (≈ 0.577 µM) and 3.13 µg/mL (≈ 9.02 µM).
Take `C=C1CCN([C@H](C)[C@](O)(Cn2cncn2)c2ccc(Cl)cc2Cl)CC1` [Example 7, (2R,3R)-2-(2,4-dichlorophenyl)-3-(4-methylenepiperidino)-1-(1H-1,2,4-triazol-1-yl)butan-2-ol]: the MIC in data set [1] (setting [8]) is 0.39 µg/mL (≈ 1.02 µM); in data set [2] (setting [9]), 0.025 µg/mL (≈ 0.0656 µM); in data set [3] (setting [10]), 0.05 µg/mL (≈ 0.131 µM); in data set [4] it was 0.39 µg/mL (≈ 1.02 µM).
For the molecule `C=CC=C1CCN([C@H](C)[C@](O)(Cn2cncn2)c2ccc(F)cc2F)CC1` [Example 12, (2R,3R)-2-(2,4-difluorophenyl)-3-(4-propenylidenepiperidino)-1-(1H-1,2,4-triazol-1-yl)butan-2-ol], the MIC in data set [1] (setting [8]) was 0.2 µg/mL (≈ 0.534 µM); in data set [2] (setting [9]), less than 0.025 µg/mL; in data set [3] (setting [10]), 0.1 µg/mL (≈ 0.267 µM); in data set [4], 0.78 µg/mL (≈ 2.08 µM).
Taken in the same sequence, the figures for `C=C1CCCN([C@H](C)[C@](O)(Cn2cncn2)c2ccc(F)cc2F)C1` [Example 13, (2R,3R)-2-(2,4-difluorophenyl)-3-(3-methylenepiperidino)-1-(1H-1,2,4-triazol-1-yl)butan-2-ol] were 0.78 µg/mL (≈ 2.24 µM), 0.1 µg/mL (≈ 0.287 µM), 0.39 µg/mL (≈ 1.12 µM) and 1.56 µg/mL (≈ 4.48 µM).
Taken in the same sequence, the figures for `C=C1CCN([C@H](C)[C@](O)(Cn2cncn2)c2ccc(F)cc2F)C1` [Example 14, (2R,3R)-2-(2,4-difluorophenyl)-3-(3-methylenepyrrolidino)-1-(1H-1,2,4-triazol-1-yl)butan-2-ol] were 0.39 µg/mL (≈ 1.17 µM), less than 0.025 µg/mL, 0.39 µg/mL (≈ 1.17 µM) and 0.78 µg/mL (≈ 2.33 µM).
Turning to `OC(Cn1cncn1)(Cn1cncn1)c1ccc(F)cc1F` [Fluconazole, reference compound], the MIC is more than 100 µg/mL in data set [1] (setting [11]), 0.39 µg/mL (≈ 1.27 µM) in data set [2] (Candida albicans), 12.5 µg/mL (≈ 40.8 µM) in data set [3] (setting [12]) and more than 100 µg/mL in data set [4].
